Each structure is given as a SMILES string. Active and inactive are the calls of the source. The rule behind the calls is not given here. Bounds are passed on as bounds.

The values that follow come from ChEMBL document CHEMBL5131482, “Synthesis and SAR of novel GPR39 agonists and positive allosteric modulators” (Bioorg Med Chem Lett, 2022).

Data set [1] concerns the target T1, G-protein coupled receptor 39 (Homo sapiens, UniProt O43194).
T1 sequence (O43194 whole entry): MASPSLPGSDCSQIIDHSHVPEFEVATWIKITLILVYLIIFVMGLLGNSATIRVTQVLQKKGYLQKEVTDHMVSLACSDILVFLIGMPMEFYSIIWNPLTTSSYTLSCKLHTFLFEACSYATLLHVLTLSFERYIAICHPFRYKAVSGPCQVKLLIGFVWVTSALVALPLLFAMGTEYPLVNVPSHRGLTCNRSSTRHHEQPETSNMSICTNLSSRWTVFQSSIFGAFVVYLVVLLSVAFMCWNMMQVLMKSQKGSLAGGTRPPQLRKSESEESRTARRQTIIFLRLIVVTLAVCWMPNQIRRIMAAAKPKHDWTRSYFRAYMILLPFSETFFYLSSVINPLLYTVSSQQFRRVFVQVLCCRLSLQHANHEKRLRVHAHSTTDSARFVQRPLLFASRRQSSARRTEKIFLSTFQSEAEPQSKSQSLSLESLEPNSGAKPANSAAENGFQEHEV
Kind of data set: Positive allosteric activity at human GPR39 receptor expressed in CHO cells assessed as increase in zn2+ induced ca2+ flux. Type of data set: cell-based. (Calcium assays in cells follow changes in intracellular calcium, usually with a dye or a luminescent sensor.)

Data set [2] addresses T1, G-protein coupled receptor 39. Kind of data set: Agonist activity at human GPR39 receptor expressed in CHO cells assessed as increase in ca2+ flux. The format is functional, cell-based.
Data set [3] relates to SH-SY5Y. In words: Neuroprotective activity against 6-OHDA-induced PD model of human SH-SY5Y cells assessed as increase in cell viability. Type of data set: functional, cell-based.
Data set [4] addresses T2, G-protein coupled receptor 39 (Homo sapiens) (UniProt O43194).
T2 sequence (whole entry): T1 sequence (O43194 whole entry)
In words: Agonist activity at human GPR39 receptor expressed in CHO cells assessed as increase in ca2+ flux relative to Zn2+. Type of data set: functional, cell-based.

Data set [5] concerns the target T2, G-protein coupled receptor 39 (Homo sapiens). Kind of data set: Positive allosteric activity at human GPR39 receptor expressed in CHO cells assessed as increase in zn2+ induced ca2+ flux relative to Zn2+. Type of data set: cell-based. Conditions: filed as positive allosteric modulator.
Data set [6] relates to SH-SY5Y. In words: Cytotoxicity in human SH-SY5Y cells assessed as decrease in cell viability at 10 uM. The format is toxicity, cell-based.
Setting [7] is: filed as positive allosteric modulator.

The EC50 is the concentration giving half of the maximal effect. Consider `Cc1cc(N2C(=O)CCC2c2ccccc2)n2ncc(-c3ccccn3)c2n1` (racemic), for which the EC50 in data set [1] is over 27100 nM; in data set [2], over 31600 nM.

One may read the Emax as the maximal effect, on the per cent scale that the assay sets. With `Cc1cc(NC(C)c2ccc(F)cc2)n2ncc(-c3ccccn3)c2n1` (single isomer, unassigned; enantiomer 2) [listing 1 of 2 here], the outcome in data set [3] was Active. Further, the Emax in data set [4] (setting [7]) was determined as 68%.

Turning to `Cc1cc(N2CCC(c3ccccc3)C2)n2ncc(-c3ccccn3)c2n1` (single isomer, unassigned; enantiomer 1) [listing 1 of 2 here], the EC50 is 142 nM in data set [1] and over 10000 nM in data set [2].

Consider `Cc1cc(N2CCC(c3ccccc3)C2)n2ncc(-c3ccccn3)c2n1` (single isomer, unassigned; enantiomer 1) [listing 2 of 2 here], for which the Emax in data set [5] worked out at 65%.

Take `Cc1cc(N2CCCC2c2cccnc2)n2ncc(-c3ccccn3)c2n1` (single isomer, unassigned; enantiomer 2) [listing 1 of 2 here]: the values for the half-maximal effective concentration (EC50) in data set [1] (cho) and in data set [2] were over 27100 nM and 240 nM, respectively.

Take `Cc1cc(N2CCCC2c2cccnc2)n2ncc(-c3ccccn3)c2n1` (single isomer, unassigned; enantiomer 1) [listing 1 of 2 here]: the EC50 is over 27100 nM in data set [1] and 79 nM in data set [2].

Turning to `CNc1cc(-c2ccccn2)nc(NC2CCCCC2)n1`, the EC50 in data set [1] is 487 nM; in data set [2], over 31600 nM. Also, in data set [5], the maximal effect (Emax) was found to be 88%.

For `Cc1cc(NCc2ccc(F)cc2)n2ncc(-c3ccccn3)c2n1`, the EC50 in data set [1] is over 27100 nM; in data set [2], 15 nM. The Emax in data set [4] (setting [7]) came to 57%.

Take `Cn1cc(-c2ccc3nc(C(N)CCOCc4ccccc4)[nH]c(=O)c3c2)cn1` (stereo not drawn): the EC50 in data set [1] was 641 nM; in data set [2], over 50000 nM. In addition, the Emax in data set [5] was 83%.

Regarding `CNc1nc(NCc2ccccc2Cl)cc(-c2ccccn2)n1`, the concentration giving a half-maximal response (EC50) in data set [1] is over 27100 nM; in data set [2], 3 nM. In data set [4] (setting [7]), the Emax was determined as 86%.

For `O=C(Cc1nn(CC2CCC2)c(=O)c2ccccc12)NCc1ccccn1`, the EC50 in data set [1] is 4040 nM; in data set [2] it was over 50000 nM. Also, the Emax in data set [5] was 49%.

`CNc1nc(Oc2ccccc2)cc(-c2ccccn2)n1`: the EC50 was found to be 23 nM in data set [1] and 481 nM in data set [2]. Further, the Emax came to 48% in data set [5] and 58% in data set [4] (setting [7]).

With `Cc1cc(N2CCC(c3ccccc3)C2)n2ncc(-c3ccccn3)c2n1` (single isomer, unassigned; enantiomer 2) [listing 1 of 2 here], the EC50 in data set [1] is 273 nM; in data set [2] (cho), over 10000 nM.

On to `Cc1cc(NC(C)c2ccc(F)cc2)n2ncc(-c3ccccn3)c2n1` (single isomer, unassigned; enantiomer 1) [listing 1 of 2 here], for which the maximal effect (Emax) in data set [4] (setting [7]) was 51%.

Take `Cc1cc(N2CCCC2c2ccccc2)n2ncc(-c3ccccn3)c2n1` (racemic): the EC50 in data set [1] was over 27100 nM; in data set [2], 17 nM. For the same compound, the Emax in data set [4] was found to be 36%.

With `Cc1cc(NC(C)c2ccc(F)cc2)n2ncc(-c3ccccn3)c2n1` (single isomer, unassigned; enantiomer 2) [listing 2 of 2 here], the EC50 was over 27100 nM in data set [1] (cho) and 26 nM in data set [2]. Moreover, the Activity entry in data set [6] is “Toxic”.

Regarding `Cc1cc(N2CCCC2c2cccnc2)n2ncc(-c3ccccn3)c2n1` (single isomer, unassigned; enantiomer 2) [listing 2 of 2 here], in data set [4] (setting [7]), the maximum response (Emax) is 64%.

`CNC(=O)C(Nc1cc(C)nc2c(-c3ccccn3)cnn12)c1ccc(F)cc1` (racemic): the EC50 is over 27100 nM in data set [1] and 78 nM in data set [2]. In data set [4] (setting [7]), the Emax was 75%.

Consider `Cc1cc(N2CCCC2c2cccnc2)n2ncc(-c3ccccn3)c2n1` (single isomer, unassigned; enantiomer 1) [listing 2 of 2 here], for which the Emax in data set [4] (setting [7]) was 58%.

On to `CNc1nc(NCc2ccc(NS(C)(=O)=O)cc2Cl)cc(-c2ccccn2)n1`, for which the EC50 in data set [1] is over 27100 nM; in data set [2], 15 nM. For the same compound, in data set [3], the outcome was Active. Besides, the Activity entry in data set [6] is on record as “Toxic”. For the same compound, the Emax in data set [4] (setting [7]) was determined as 84%.

On to `N#Cc1ccc(N2CCN(Cc3cn4cc(Cl)ccc4n3)CC2)nc1`, for which the 50% effective concentration (EC50) in data set [2] was found to be 6250 nM. The Emax in data set [4] (setting [7]) came out at 48%.

For the compound `CNc1nc(NC2CCCCC2)cc(-c2ccccn2)n1`, the EC50 in data set [1] was over 27100 nM; in data set [2], 16 nM. For the same compound, the maximal effect (Emax) in data set [4] (setting [7]) turned out to be 49%.

Take `Cc1cc(N2CCC(c3ccccc3)C2)n2ncc(-c3ccccn3)c2n1` (single isomer, unassigned; enantiomer 2) [listing 2 of 2 here]: in data set [5], the Emax was determined as 54%.

`NC(Cc1cnc[nH]1)c1nc2ccc(-c3ccccc3)cc2c(=O)[nH]1` (stereo not drawn): the EC50 in data set [1] is 251 nM; in data set [2], over 50000 nM. Moreover, the Emax in data set [5] turned out to be 102%.

As to `Cc1cc(NC(C)(C)c2ccc(F)cc2)n2ncc(-c3ccccn3)c2n1`, the EC50 is over 27100 nM in data set [1] and 63 nM in data set [2]. In data set [4], the Emax stood at 38%.

Regarding `Cc1cc(NC(C)c2ccc(F)cc2)n2ncc(-c3ccccn3)c2n1` (single isomer, unassigned; enantiomer 1) [listing 2 of 2 here], the 50% effective concentration (EC50) in data set [1] is over 27100 nM; in data set [2], 17 nM.
